From publication PMC10502087, “Fatty acid binding proteins are novel modulators of synaptic epoxyeicosatrienoic acid signaling in the brain” (Scientific Reports, 2023)
Where two headings read alike, the source gives them in different places.

Assays:
FABP3 = FABP3 (Homo sapiens, UniProt P05413); assay: Fluorescent probe (DAUDA) displacement from purified FABP3; assay type: binding
From the text: (§1) We first examined the binding of EETs (Fig. 1) to purified FABP3, FABP5, and FABP7 via fluorescent probe displacement assays as previously described[30],[31]. 5,6-EET, 8,9-EET, 11,12-EET, and 14,15-EET bound to all three FABPs with distinct selectivity. […] Similarly, 11,12-EET emerged as the preferred ligand for FABP5 followed by 8,9-EET, 5,6-EET, and 14,15-EET (Fig. 2A, Table 1). For FABP7, 11,12-EET bound with highest affinity while interactions of the remaining EETs were considerably weaker.
(§2) Affinities of each ligand were determined via fluorescent probe displacement from purified FABPs as previously described[30],[31],[47]. Ligands were incubated in assay buffer (30 mM Tris, 100 mM NaCl, pH 7.5) containing 3 μM purified FABPs, 500 nM DAUDA (for FABP3 and FABP5) or ANS (for FABP7). AA (10 μM) was included to account for maximal probe displacement. The fluorescence signal was quantified on a F5 Filtermax Multi-Mode Microplate Reader (Molecular Devices) with the excitation and emission wavelengths set at 360/535 nm for DAUDA and 360/465 nm for ANS. After background subtraction, normalized fluorescence values were fit to a one-site binding model using GraphPad Prism (v 9.5) and Ki values were determined using the following equation: Ki = IC50/(1 + ([Probe]/Kd).

FABP5 [1] = target: T1, FABP5 (Homo sapiens, UniProt Q01469); assay: Fluorescent probe (DAUDA) displacement from purified FABP5; assay type: binding
Experimental: We first examined the binding of EETs (Fig. 1) to purified FABP3, FABP5, and FABP7 via fluorescent probe displacement assays as previously described[30],[31].
Affinities of each ligand were determined via fluorescent probe displacement from purified FABPs as previously described[30],[31],[47]. Ligands were incubated in assay buffer (30 mM Tris, 100 mM NaCl, pH 7.5) containing 3 μM purified FABPs, 500 nM DAUDA (for FABP3 and FABP5) or ANS (for FABP7). AA (10 μM) was included to account for maximal probe displacement.

FABP7 [2] = target: T2, FABP7 (Homo sapiens, UniProt O15540); assay: Fluorescent probe (ANS) displacement from purified FABP7; assay type: binding
From the text: as §1, §2

[3] = tested on: CA1 pyramidal neuron glutamate synapses; design: method as in PMID 28526610, PMID 29138698; settings: previous studies; cited from earlier work
[4] = tested on: CA1 pyramidal neuron glutamate synapses; assay: Ex vivo whole-cell recordings of evoked EPSCs in hippocampal slices; assay type: cell-based, C57Bl/6 mice
Experimental: Mice were deeply anesthetized with isoflurane and decapitated. Coronal brain slices (350 μm thick) containing the hippocampus were cut using a vibratome Leica VT 1200 (Leica, CA) in a modified ice-cold […] artificial cerebrospinal fluid (ACSF) composed in mM: 110 mM choline-Cl, 2.5 mM KCl, 0.5 mM CaCl2, 7 mM MgSO4, 1.25 mM NaH2PO4, 26.2 mM NaHCO3, 11.6 mM sodium L-ascorbate, 3.1 mM sodium pyruvate, and 25 mM glucose, and equilibrated with 95% O2 and 5% CO2. Hippocampal slices were first transferred to a chamber with the same cutting solution at 35 °C for 15 min and then to a standard ACSF in mM: 119 mM NaCl, 2.5 mM CaCl2, 1.3 mM MgSO4, 1 mM NaH2PO4, 26.2 mM NaHCO3, and 11 mM glucose continuously bubbled with a mixture of 95% O2 and 5% CO2 for additional 45 min at 35 °C. Slices were allowed to recover at room temperature (≥ 1 h). After recovery, individual slice was transferred to a recording chamber, continuously perfused with standard ACSF containing 0.01% DMSO saturated with 95% O2 and 5% CO2, and warmed at 30 °C.
Hippocampal CA1 pyramidal neurons were visualized using an upright microscope (BX 51 WI; Olympus, Tokyo, Japan) and somatic whole-cell recordings were obtained from pyramidal neurons using glass pipette electrodes with 3–5 MΩ resistance when filled with an internal solution containing: 120 mM potassium gluconate, 10 mM KCl, 10 mM Na2-phosphocreatine, 10 mM HEPES, 1 mM MgCl2, 1 mM EGTA, 2 mM Na2-ATP, 0.25 mM Na-GTP (pH 7.3 adjusted with KOH; osmolarity, 280–290 mOsmol/l). All recordings were performed in the presence of the GABA A receptor antagonist picrotoxin (100 μM). Excitatory postsynaptic currents (EPSCs) were evoked with electrical pulses (5–20 V, 100–200 μs) delivered at 0.1 Hz using glass microelectrode placed in the […] in CA1 pyramidal neurons voltage-clamped at − 70 mV. All recorded currents were amplified with an a Multiclamp 700B amplifier (Molecular Devices, Sunnyvale, CA), filtered at 3 kHz, digitized at 20 kHz with Digidata 1200 (Molecular Devices), and acquired using the pClamp 10.7 software (Molecular Devices, Sunnyvale, CA). To examine the impact of TPPU on the amplitude of evoked EPSCs, at least 10–20 min of stable baseline recordings were obtained and TPPU was perfused to the brain slices (final DMSO concentration of 0.01%).
For the analysis of the electrophysiology data, the amplitude of evoked EPSCs (eEPSC) was determined by measuring the average current during a 2-ms period at the peak of each eEPSC and subtracted from the average baseline current determined during a 5-ms window taken before the stimulus artifact. All eEPSC amplitudes were normalized to the mean baseline amplitude recorded for at least 10 min before drug application. All the data are represented as the mean ± SE and were not transformed.

FABP5 [5] = target: T1, FABP5; design: method as in PMID 8798739, PMID 8608126; settings: cited from earlier work
FABP7 [6] = target: T2, FABP7; design: method as in PMID 8798739, PMID 8608126; settings: cited from earlier work
[7] = mean ± S.E., n = 4, Table 1, read-out: Ki FABP5

Sequence of FABP3 (P05413 whole entry): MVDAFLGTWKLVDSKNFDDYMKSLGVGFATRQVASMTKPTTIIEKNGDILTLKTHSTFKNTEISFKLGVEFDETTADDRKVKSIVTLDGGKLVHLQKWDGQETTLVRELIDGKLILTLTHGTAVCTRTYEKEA
T1 sequence (Q01469 whole entry): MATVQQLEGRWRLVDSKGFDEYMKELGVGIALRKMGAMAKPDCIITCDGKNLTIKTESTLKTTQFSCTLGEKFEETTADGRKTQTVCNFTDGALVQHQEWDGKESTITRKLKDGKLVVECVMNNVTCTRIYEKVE
T2 sequence (O15540 whole entry): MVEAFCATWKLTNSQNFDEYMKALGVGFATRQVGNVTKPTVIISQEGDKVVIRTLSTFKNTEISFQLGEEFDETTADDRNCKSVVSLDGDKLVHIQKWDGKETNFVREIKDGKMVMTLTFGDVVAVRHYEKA

Row | Structure (SMILES) | Ki (FABP3; mean ± S.E., n = 4, Table 1) | Ki (FABP5 [1]; [7]) | Ki (FABP7 [2]; mean ± S.E., n = 4, Table 1) | other results
1 | CCCCC/C=C\C/C=C\C[C@H]1O[C@H]1C/C=C\CCCC(=O)O [8,9-EET] | 0.17 ± 0.02 µM | 1.87 ± 0.21 µM | 3.16 ± 0.3 µM | 
2 | CCCCC[C@H]1O[C@H]1C/C=C\C/C=C\C/C=C\CCCC(=O)O [14,15-EET] | 0.65 ± 0.08 µM | 5.56 ± 0.48 µM | 3.74 ± 0.12 µM | Effect on hippocampal glutamate synapses [3]: potentiates
3 | CCCCCC(O)C=CC1C(O)CC(O)C1CC=CCCCC(=O)NCCO (stereo not drawn) [PGF2α-EA, prostamide F2α] | > 50 µM | > 50 µM | > 50 µM | 
4 | CCCCC/C=C\C/C=C\C/C=C\C[C@H]1O[C@H]1CCCC(=O)O [5,6-EET] | 1.44 ± 0.12 µM | 3.57 ± 0.28 µM | 4.3 ± 0.29 µM | 
5 | CCCCC[C@H](O)/C=C/[C@@H]1[C@@H](C/C=C\CCCC(=O)O)[C@@H](O)C[C@H]1O [PGF2α] | > 50 µM | > 50 µM | > 50 µM | 
6 | CCCCC/C=C\C[C@H]1O[C@H]1C/C=C\C/C=C\CCCC(=O)O [11,12-EET] | 0.2 ± 0.03 µM | 0.52 ± 0.07 µM | 1.13 ± 0.11 µM | Effect on hippocampal glutamate synapses [3]: depresses
7 | CCC(=O)N1CCC(NC(=O)Nc2ccc(OC(F)(F)F)cc2)CC1 [TPPU] |  |  |  | CA1 pyramidal neurons showing depression of eEPSC amplitude ([4]; TPPU 10 µM): 41%; CA1 pyramidal neurons showing potentiation of eEPSC amplitude ([4]; TPPU 10 µM): 47%; Coefficient of variation (CV) during depression of EPSCs ([4]; TPPU 10 µM vs baseline, n = 5, p = 0.086): not accompanied with significant changes; Paired pulse ratio (PPR) during depression of EPSCs ([4]; TPPU 10 µM vs baseline, n = 5, p = 0.108): not accompanied with significant changes; Coefficient of variation (CV) during potentiation of eEPSCs ([4]; TPPU 10 µM vs baseline, n = 7, p = 0.0017): significant decrease; Paired pulse ratio (PPR) during potentiation of eEPSCs ([4]; TPPU 10 µM vs baseline, n = 7, p = 0.042): significant decrease
8 | CCCCC[C@H](O)/C=C/[C@H]1[C@H](O)CC(=O)[C@@H]1C/C=C\CCCC(=O)O [PGE2, prostaglandin E2] | > 50 µM | > 50 µM | > 50 µM | Affinity for FABP5 (FABP5 [5]): does not display appreciable affinity; Affinity for FABP7 (FABP7 [6]): does not display appreciable affinity
9 | CCCCCCCC/C=C\CCCCCCCC(=O)OC[C@H](O)COP(=O)(O)O [LPA, oleoyl lysophosphatidic acid] | 1.37 ± 0.12 µM | 3.2 ± 0.19 µM | > 50 µM | 
10 | O=C(O)C1[C@H](c2ccccc2)C(C(=O)Oc2cccc3ccccc23)[C@H]1c1ccccc1 (stereo partly shown) [SBFI-26] |  |  |  | Ki (FABP3; inhibitors, Table 3): 2.7 ± 0.42 µM; Ki (FABP7 [2]; inhibitors, Table 3): 0.45 ± 0.07 µM; Effect on TPPU-induced potentiation of eEPSCs ([4]; inhibitor 10 µM with TPPU 10 µM, hippocampal slices): significantly reduced
11 | CCCCCC(O)C=CC1C(O)CC(=O)C1CC=CCCCC(=O)OCC(O)CO (stereo not shown) [PGE2-GE, prostaglandin E2 glyceryl ester] | > 50 µM | > 50 µM | > 50 µM | 
12 | CCCCCC=CC=C1C(=O)C=CC1CC=CCCCC(=O)O (stereo not shown) [15d-PGJ2, 15-deoxy-Δ^12,14-Prostaglandin J2] | 1.22 ± 0.14 µM |  | 29.9 ± 5.64 µM | Ki (FABP5 [1]): 12.3 ± 1.54 µM
